Test results from paper PMC4536133 (Antiviral research, 2015).

What was measured:
HSV-1 [1] = experiment: Plaque assay of supernatant of HSV-1 infected Vero cells; assay type: cell-based, herpes simplex virus type 1 (KOS) in Vero cells
HSV-1 [2] = experiment: Plaque assay of supernatant of reactivated iPSC-neurons titrated on Vero cells; assay type: cell-based, herpes simplex virus type 1 (KOS) in human iPSC-neurons; conditions: 5BVdU+IFN-α then drug 48h, NaB reactivation
HSV-1 [3] = experiment: qPCR for HSV-1 DNA copy number in iPSC-neurons; assay type: cell-based, herpes simplex virus type 1 (KOS) in human iPSC-neurons; conditions: acutely infected iPSC-neurons, 24hpi, 50 μM; untreated 3,461,970
HSV-1 [4] = experiment: FISH analysis of HSV-1 viral DNA in infected cells; assay type: cell-based, herpes simplex virus type 1; conditions: HSV-1 infected cells
HSV-1 [5] = experiment: Reactivation of quiescent HSV-1 infection in iPSC-neurons, flow cytometry; assay type: cell-based, herpes simplex virus type 1 (KOS) in human iPSC-neurons; conditions: compared to vehicle
HSV-1 ICP0 and ICP4 = experiment: Immunocytochemistry of HSV-1 immediate early genes ICP0 and ICP4; assay type: cell-based, herpes simplex virus type 1; conditions: infected cells
VZV = VZV infection of ARPE-19 cells, luciferase activity; assay type: cell-based; conditions: PAA

Nc1nc2c(ncn2COCCO)c(=O)[nH]1 [ACV, Acyclovir]
infectious particles in supernatant of treated infected cultures (plaque assay) (HSV-1 [1]; 50 μM): undetectable
infectious viral particles in supernatant after reactivation (HSV-1 [2]): no detectable infectious viral particles
number of copies of viral DNA in 5 ng of total DNA (HSV-1 [3]): 483 copies
viral DNA copy number by FISH (HSV-1 [4]): substantial reduction
mean intensity of fluorescence (MFI) after reactivation (HSV-1 [5]): lowered
expression of HSV-1 immediate early genes ICP0 and ICP4 (HSV-1 ICP0 and ICP4): markedly reduced expression

CO/C1=C\C(C)=C\[C@@H](C)[C@@H](O)[C@@H](C)C/C(C)=C/C=C/[C@H](OC)[C@@H]([C@@H](C)[C@@H](O)[C@H](C)[C@@]2(O)C[C@@H](O)[C@H](C)[C@@H](C(C)C)O2)OC1=O [BFLA, bafilomycin A1]
infectious particles in supernatant of treated infected cultures (plaque assay) (HSV-1 [1]; BFLA 0.1 μM): undetectable

CCN(CC)CCCC(C)Nc1ccnc2cc(Cl)ccc12 (centres unmarked) [CQ, chloroquine]
infectious particles in supernatant of treated infected cultures (plaque assay) (HSV-1 [1]; 50 μM): undetectable

O=C(O)CP(=O)(O)O [PAA, phosphonoacetic acid]
inhibition of VZV infection (VZV): effectively inhibited
viral DNA copy number by FISH (HSV-1 [4]): substantial reduction
expression of HSV-1 immediate early genes ICP0 and ICP4 (HSV-1 ICP0 and ICP4): markedly reduced expression
